Measured values from patent US10160705B2, “Class of HDAC inhibitors expands the renal progenitor cells population and improves the rate of recovery from acute kidney injury” (University of Pittsburgh—Of the Commonwealth System of …, priority 2011, dated 2018).
Like-named read-outs stand apart in the source and are kept apart here.

Experiments:
zebrafish embryos = test: Phenotypic screen for edema and survival in zebrafish larvae at 72 hpf; details: number of larvae (of 36); 3 μM from 2 hpf, scored at 72 hpf
Procedure: The screen was performed in zebrafish embryos using the National Cancer Institute's Developmental Therapeutics Program (NCI/DTP) Diversity Set I. This library contains 1990 compounds selected by pharmacophore modeling to represent the more than 140,000 small molecules maintained in the NCI/DTP Open Repository. Compounds from the NCI/DTP Diversity Set I were diluted to 10 μM in E3 embryo medium (5 mM NaCl, 0.33 mM CaCl2, 0.33 mM MgSO4, and 0.17 mM KCl) in a final DMSO concentration of 0.5% and arrayed in 96-well plates. Beginning at approximately 2 hpf, embryos were transferred to each well in groups of five using a glass pipette. The plates were incubated at 28.5° C. for 70 hours. Individual wells were then scored for a dominant phenotype, representative of at least four of the five embryos. The primary objective was to identify compounds that caused edema in treated embryos at 72 hpf. Small molecules generating edema were retested once for verification, before obtaining additional compound from the NCI/DTP Open Repository.
PTBA was synthesized as described below. Hydroxyurea and aphidicolin were obtained from Sigma-Aldrich. Groups of 20 to 30 chorionated 2 hpf embryos were arrayed in individual wells of 12-well plates. E3 medium was removed with a glass pipette and replaced with 1.5 ml treatment solutions containing 0.5% DMSO in E3 with or without compound at the reported concentrations. Treatments for all studies were initiated at 2 hpf, except for the temporal studies (FIG. 6) and the HUA studies (FIG. 11). HUA studies were performed as described previously (Zhang, L., et al. Cell cycle progression is required for zebrafish somite morphogenesis but not segmentation clock function. Development 135, 2065-2070, (2008)), with the following modifications. HUA in 0.5% DMSO was added at early gastrulation (5 hpf) and PTBA was subsequently added at late gastrulation (8 hpf) to allow for penetration of the proliferation inhibitors. All embryos were incubated at 28.5° C. until the required developmental stage.
Following 70 hours of treatment (as described above), edemic phenotypes in 72 hpf larvae were scored using a phenotype-based classification system. Wild type: no visible edema or developmental delay. […] Significant effects (p<0.05) on survival were determined by two-tailed Fisher's exact test in comparison with the 0 μM PTBA treatment group.
PTBA and methyl-4-(phenylthio)butanoate were synthesized as described above. 4-(Naphthalen-2-ylthio)butanoic acid (NSC2733) and 3-(phenylthio)benzoic acid (NSC113994), were obtained from the NCI/DTP Open Repository. APHA compound 8, Apicidin, butanoic acid, PBA, 4-phenoxybutanoic acid, 5-phenylpentanoic acid, Scriptaid, TSA, and valproic acid were obtained from Sigma-Aldrich. MS-275 and SAHA were obtained from Cayman Chemical Co. 4-(phenylsulfonyl)butanoic acid was obtained from Matrix Scientific. Tubacin was a gift of Dr. Ralph Mazitschek of the Broad Institute (Cambridge, Mass.). The remaining PTBA analogs were synthesized. Three independent groups of 12 chorionated 2 hpf embryos were arrayed in individual wells of 24-well plates. E3 medium was removed with a glass pipette and replaced with 800 μl treatment solutions containing 0.5% DMSO in E3 with or without compound at the reported concentrations.
Phenotypic screening of PTBA analogs was performed identically to the concentration-response experiments detailed above. Embryos were treated with each PTBA analog from 2 to 72 hpf as described above.

renal progenitor cells = test: In situ hybridization for lhx1a expression in 10-somite embryos (renal progenitor cell expansion); assay type: in vivo; details: for responders at 3 µM / responders at 1.5 µM / responders at 0.2 µM / responders at 0.4 µM / responders at 0.8 µM / EC50: Danio rerio; for Lhx1a expansion caused by analog treatment, 800 nM: 800 nM from 2 hpf; for responders at 0.2 µM: 200 nM, read-out: Expansion of Cells (including repeats* and recounts**) 200 nM; for EC50: first pass EC50 from percent expansion (Excel trendline), average where several experiments
Procedure: PTBA was synthesized as described below. Hydroxyurea and aphidicolin were obtained from Sigma-Aldrich.
In situ hybridization and immunocytochemistry: In situ hybridization was performed as previously described with some modifications.142 Hybridization temperature was 65° C. Embryos were blocked in 2% blocking reagent (Roche) with 5% sheep serum in MAB (100 mM maleic acid and 150 mM NaCl [pH 7.5]). Whole-mount immunocytochemistry with 1:25 mouse anti-α6F antibody (Developmental Studies Hybridoma Bank) and 1:100 Cy3 secondary antibody (Jackson ImmunoResearch) was performed as described previously.108 Embryos were embedded in JB-4 for sectioning per the manufacturer's instructions (Polysciences), sectioned at 5 μm, and mounted with Cytoseal 60 (Richard-Allan Scientific).
The remaining PTBA analogs were synthesized.
In situ hybridization for lhx1a was performed as described above. […] Compounds were classified as effective, partially-effective or ineffective based on comparison to the effects of PTBA at a given concentration.
Testing of the compounds is on-going, but for those tested, Table 6 provides first pass EC50s based upon colormetric in situ hybridizations for the Lhx1a mRNA expression levels. After the procedure is run, in situ hybridization is done for the lhx1 mRNA expression and the number of embryos that show an expanded kidney field is manually counted to establish the percent of embryos showing expansion. Then the EC50 is determined by plotting the percent expansion in Excel, graphing the results and using the trendline function to determine the 50 percent point.

[1] = 3 μM from 2 hpf, 10-somite embryos
[2] = 3 μM from 2 hpf, 10-somite embryos, read-out: lhx1a expansion, percent of treated embryos
[3] = 1.5 μM from 2 hpf, 10-somite embryos
[4] = 1.5 μM from 2 hpf, 10-somite embryos, read-out: lhx1a expansion, percent of treated embryos
[5] = percent of embryos with expanded kidney field
[6] = percent of embryos with expanded kidney field, 1.5 μM, read-out: Expansion of Cells (including repeats* and recounts**) 1.5 μM
[7] = percent of embryos with expanded kidney field, 3 μM, read-out: Expansion of Cells (including repeats* and recounts**) 3 μM
[8] = percent of embryos with expanded kidney field, 400 nM, read-out: Expansion of Cells (including repeats* and recounts**) 400 nM
[9] = percent of embryos with expanded kidney field, 800 nM, read-out: Expansion of Cells (including repeats* and recounts**) 800 nM

Compound: O=C(CCCCCN1C(=O)c2cccc3cccc(c23)C1=O)NO [Scriptaid, reference compound]
- Dead (zebrafish embryos): 0
- Edemic 1 (E1) (zebrafish embryos): 1
- Edemic 2 (E2) (zebrafish embryos): 0
- Edemic 3 (E3) (zebrafish embryos): 0
- Wild-type (WT) (zebrafish embryos): 35
- Lhx1a expansion caused by analog treatment, 3 μM (renal progenitor cells; [1]): +/−
- responders at 3 µM (renal progenitor cells; [2]): 39%

Compound: CCCC(=O)O [butanoic acid, reference compound]
- Dead (zebrafish embryos): 1
- Edemic 1 (E1) (zebrafish embryos): 0
- Edemic 2 (E2) (zebrafish embryos): 0
- Edemic 3 (E3) (zebrafish embryos): 0
- Wild-type (WT) (zebrafish embryos): 35
- Lhx1a expansion caused by analog treatment, 3 μM (renal progenitor cells; [1]): −

Compound: O=C(CCCSc1ccc(F)cc1)NO [UPHD-00029, 4-[(4-fluoro-phenyl)sulfanyl]-N-hydroxybutanamide]
- Dead (zebrafish embryos): 28
- Edemic 1 (E1) (zebrafish embryos): 0
- Edemic 2 (E2) (zebrafish embryos): 0
- Edemic 3 (E3) (zebrafish embryos): 8
- Wild-type (WT) (zebrafish embryos): 0
- Lhx1a expansion caused by analog treatment, 200 nM (renal progenitor cells; 200 nM from 2 hpf, 10-somite embryos): −
- Lhx1a expansion caused by analog treatment, 400 nM (renal progenitor cells; 400 nM from 2 hpf, 10-somite embryos): +/−
- Lhx1a expansion caused by analog treatment, 800 nM (renal progenitor cells; 10-somite embryos): +
- Lhx1a expansion caused by analog treatment, 1.5 μM (renal progenitor cells; [3]): +
- Lhx1a expansion caused by analog treatment, 3 μM (renal progenitor cells; [1]): +
- responders at 1.5 µM (renal progenitor cells; [4]): 100%
- responders at 0.2 µM (renal progenitor cells; [5]): 6%
- responders at 1.5 µM (renal progenitor cells; [6]): 100%
- responders at 3 µM (renal progenitor cells; [7]): 100%
- responders at 0.4 µM (renal progenitor cells; read-out: lhx1a expansion, percent of treated embryos, 400 nM from 2 hpf, 10-somite embryos): 35%
- responders at 0.8 µM (renal progenitor cells; read-out: lhx1a expansion, percent of treated embryos, 800 nM from 2 hpf, 10-somite embryos): 60%
- EC50 (renal progenitor cells): 1.31 µM

Compound: O=C(CCCSc1ccc(Br)cc1)NO [VNK-I-292, 4-[(4-bromo-phenyl)sulfanyl]-N-hydroxybutanamide]
- Dead (zebrafish embryos): 0
- Edemic 1 (E1) (zebrafish embryos): 23
- Edemic 2 (E2) (zebrafish embryos): 12
- Edemic 3 (E3) (zebrafish embryos): 0
- Wild-type (WT) (zebrafish embryos): 1
- Lhx1a expansion caused by analog treatment, 1.5 μM (renal progenitor cells; [3]): +/−
- Lhx1a expansion caused by analog treatment, 3 μM (renal progenitor cells; [1]): +
- responders at 1.5 µM (renal progenitor cells; [4]): 47%

Compound: O=C(O)c1cccc(Sc2ccccc2)c1 [3-(phenylthio)benzoic acid, reference compound]
- Dead (zebrafish embryos): 0
- Edemic 1 (E1) (zebrafish embryos): 34
- Edemic 2 (E2) (zebrafish embryos): 0
- Edemic 3 (E3) (zebrafish embryos): 0
- Wild-type (WT) (zebrafish embryos): 2
- Lhx1a expansion caused by analog treatment, 3 μM (renal progenitor cells; [1]): −
- lhx1a expansion, percent of treated embryos (renal progenitor cells; [1]): no expansion

Compound: CC(C)(C)OC(=O)CCCSc1ccccc1 [tert-butyl 4-(phenylthio)butanoate]
- Dead (zebrafish embryos): 0
- Edemic 1 (E1) (zebrafish embryos): 3
- Edemic 2 (E2) (zebrafish embryos): 0
- Edemic 3 (E3) (zebrafish embryos): 0
- Wild-type (WT) (zebrafish embryos): 33
- Lhx1a expansion caused by analog treatment, 3 μM (renal progenitor cells; [1]): +/−
- responders at 3 µM (renal progenitor cells; [2]): 25%

Compound: CCC(C)OC(=O)CCCSc1ccccc1 (centres unmarked) [VNK-I-154]
- Dead (zebrafish embryos): 1
- Edemic 1 (E1) (zebrafish embryos): 19
- Edemic 2 (E2) (zebrafish embryos): 12
- Edemic 3 (E3) (zebrafish embryos): 2
- Wild-type (WT) (zebrafish embryos): 2
- Lhx1a expansion caused by analog treatment, 800 nM (renal progenitor cells; 10-somite embryos): +/−
- Lhx1a expansion caused by analog treatment, 1.5 μM (renal progenitor cells; [3]): +
- Lhx1a expansion caused by analog treatment, 3 μM (renal progenitor cells; [1]): +
- responders at 1.5 µM (renal progenitor cells; [4]): 89%

Compound: O=C(O)CCCSc1ccc2ccccc2c1 [4-(naphthalen-2-ylthio)butanoic acid, 4-(Naphthalen-2-ylthio)butanoic acid, reference compound]
- Dead (zebrafish embryos): 2
- Edemic 1 (E1) (zebrafish embryos): 9
- Edemic 2 (E2) (zebrafish embryos): 0
- Edemic 3 (E3) (zebrafish embryos): 0
- Wild-type (WT) (zebrafish embryos): 25
- Lhx1a expansion caused by analog treatment, 3 μM (renal progenitor cells; [1]): −
- lhx1a expansion, percent of treated embryos (renal progenitor cells; 3 μM from 2 hpf, 10-somite embryos, listed as 4-(napthalen-2-ylthio)butanoic acid): no expansion
- responders at 3 µM (renal progenitor cells; [2]): 33%

Compound: Nc1ccccc1NC(=O)CCCCSc1ccc(F)cc1 [UPHD-00037, N-(2-aminophenyl)-5-[(4-fluoro-phenyl)sulfanyl]pentanamide]
- responders at 0.2 µM (renal progenitor cells; [5]): 10%
- EC50 (renal progenitor cells): 2.59 µM

Compound: O=C(NO)c1ccc(CCSc2ccccc2)cc1 [UPHD-00061, N-hydroxy-4-[2-(phenyl-sulfanyl)ethyl]benzamide]
- responders at 0.2 µM (renal progenitor cells; [5]): 5.5%
- responders at 0.4 µM (renal progenitor cells; [8]): 0%
- responders at 0.8 µM (renal progenitor cells; [9]): 0%
- responders at 1.5 µM (renal progenitor cells; [6]): 6%
- responders at 3 µM (renal progenitor cells; [7]): 37%
- EC50 (renal progenitor cells): > 3 µM

Compound: O=C(NO)c1ccc(CSc2ccccc2)cc1 [UPHD-00052, N-hydroxy-4-[(phenyl-sulfanyl)methyl]benzamide]
- responders at 0.2 µM (renal progenitor cells; [5]): 0%
- responders at 0.4 µM (renal progenitor cells; [8]): 0%
- responders at 0.8 µM (renal progenitor cells; [9]): 0%
- responders at 1.5 µM (renal progenitor cells; [6]): 10%
- EC50 (renal progenitor cells): > 3 µM

Compound: O=C(NO)c1ccc(CCSc2ccc(F)cc2)cc1 [UPHD-00067, 4-{2[(4-fluoro-phenyl)sulfanyl]ethyl}-N-hydroxybenzamide]
- responders at 0.2 µM (renal progenitor cells; [5]): 17%
- responders at 3 µM (renal progenitor cells; [7]): 20%
- EC50 (renal progenitor cells): 0.8 µM

Compound: Nc1ccccc1NC(=O)CCCCCS(=O)(=O)c1ccc2ccccc2c1 [UPHD-00066, N-(2-aminophenyl)-6-(naphthalene-2-sulfonyl)hexanamide]
- responders at 0.2 µM (renal progenitor cells; [5]): 0%
- responders at 0.4 µM (renal progenitor cells; [8]): 0%
- responders at 0.8 µM (renal progenitor cells; [9]): 5%
- responders at 1.5 µM (renal progenitor cells; [6]): 11%
- responders at 3 µM (renal progenitor cells; [7]): 10%
- EC50 (renal progenitor cells): > 3 µM

Compound: O=C(CCCCCSc1ccc(F)cc1)NO [UPHD-00051, 6-[(4-fluoro-phenyl)sulfanyl]-N-hydroxyhexanamide]
- responders at 3 µM (renal progenitor cells; [7]): 86.7%
- EC50 (renal progenitor cells): 1.9 µM

Compound: COC(=O)c1ccc(CSc2ccccc2)cc1 [UPHD-00045, methyl 4[(phenyl-sulfanyl)methyl]benzoate]
- responders at 0.8 µM (renal progenitor cells; [9]): 17%
- responders at 1.5 µM (renal progenitor cells; [6]): 0%
- responders at 3 µM (renal progenitor cells; [7]): 17%
- EC50 (renal progenitor cells): > 3 µM

Compound: COC(=O)CCCCCCSc1ccc(F)cc1 [UPHD-00039, methyl 7-[(4-fluor-phenyl)sulfanyl]heptanoate]
- responders at 0.8 µM (renal progenitor cells; [9]): 20%
- responders at 1.5 µM (renal progenitor cells; [6]): 35%
- responders at 3 µM (renal progenitor cells; [7]): 11%
- EC50 (renal progenitor cells): > 3 µM

Compound: O=C(CCCCSc1ccccc1)NO [UPHD-00035, N-hydroxy-5-(phenyl-sulfanyl)pentanamide]
- responders at 0.2 µM (renal progenitor cells; [5]): 25%
- responders at 0.4 µM (renal progenitor cells; [8]): 10%
- responders at 0.8 µM (renal progenitor cells; [9]): 0%
- responders at 1.5 µM (renal progenitor cells; [6]): 0%
- responders at 3 µM (renal progenitor cells; [7]): 21.1%
- EC50 (renal progenitor cells): > 3 µM
